From patent publication US11013726B2 (Arbutus Biopharma Corporation, priority 2016, dated 2021)

Tested on: HBsAg
Experiment: HBsAg assay
Type: cell-based, hepatitis B virus
Details: Hepatitis B virus, HepG2.2.15, 144 h, read-out: sAg EC50, μM, HepG2.2.15 cells, day 6
Summary of the method: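 HepG2.2.15 cells were treated with serially diluted compounds (0.5% DMSO), with medium and compound renewed after 2-3 days. Secreted HBsAg measured at day 6 by chemiluminescence immunoassay; EC50 from dose-response curves. Viability assessed in parallel by CellTiter-Glo.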

SMILES | EC50
CC(C)[C@@H]1COc2cc(N3CCOCC3)c(Cl)cc2-c2cc(=O)c(C(=O)O)cn21 [Example 62, (R)-2-Chloro-7-isopropyl-3-morpholino-11-oxo-6,7-dihydro-11H-benzo[f]pyrido[1,2-d][1,4]oxazepine-10-carboxylic acid] | 0.21 µM
CC(C)[C@@H]1COc2cc(OCCCCO)c(Cl)cc2-c2cc(=O)c(C(=O)O)cn21 [Example 39, (R)-2-Chloro-3-(4-hydroxybutoxy)-7-isopropyl-11-oxo-6,7-dihydro-11H-benzo[f]pyrido[1,2-d][1,4]oxazepine-10-carboxylic acid] | 0.014 µM
COCCCOc1cc2c(nc1OC)-c1cc(=O)c(C(=O)O)cn1[C@H](C(C)C)CC2 [Example 168, (S)-7-Isopropyl-2-methoxy-3-(3-methoxypropoxy)-11-oxo-5,6,7,11-tetrahydrodipyrido[1,2-a:2′,3′-c]azepine-10-carboxylic acid] | 0.071 µM
CC(C)[C@@H]1COc2cc(OCCCNC(=O)OC(C)(C)C)c(C3CC3)cc2-c2cc(=O)c(C(=O)O)cn21 [Example 53, (R)-3-(3-((tert-Butoxycarbonyl)amino)propoxy)-2-cyclopropyl-7-isopropyl-11-oxo-6,7-dihydro-11H-benzo[f]pyrido[1,2-d][1,4]oxazepine-10-carboxylic acid] | 0.013 µM
COc1cc2c(cc1OC)-c1cc(=O)c(C(=O)O)cn1C(C(C)C)CC2 (stereo not shown) [Example 19, 6-Isopropyl-10,11-dimethoxy-2-oxo-2,6,7,8-tetrahydrobenzo[c]pyrido[1,2-a]azepine-3-carboxylic acid] | 0.027 µM
COCCCOc1cc2c(cc1Cl)-c1cc(=O)c(Nc3ncccn3)cn1C(C(C)(C)C)C2 (stereo not shown) [Example 129, 6-(Tert-butyl)-10-chloro-9-(3-methoxypropoxy)-3-(pyrimidin-2-ylamino)-6,7-dihydro-2H-pyrido[2,1-a]isoquinolin-2-one] | 5.9 µM
COCCCOc1cc2c(cc1Cl)-c1cc(=O)c(OC)cn1[C@H](C(C)C)CO2 [Example 139, (R)-2-Chloro-7-isopropyl-10-methoxy-3-(3-methoxypropoxy)-6,7-dihydro-11H-benzo[f]pyrido[1,2-d][1,4]oxazepin-11-one] | 14 µM
CCOP(=O)(O)c1cn2c(cc1=O)-c1cc(Cl)c(OCCCOC)cc1CC2C(C)(C)C (stereo not shown) [Example 106, Ethyl hydrogen (6-(tert-butyl)-10-chloro-9-(3-methoxypropoxy)-2-oxo-6,7-dihydro-2H-pyrido[2,1-a]isoquinolin-3-yl)phosphonate] | 7.2 µM
COCCCOc1cc2c(nc1Cl)-c1cc(=O)c(C(=O)O)cn1[C@H](CCO)CO2 [Example 80, (R)-2-Chloro-7-(2-hydroxyethyl)-3-(3-methoxypropoxy)-11-oxo-6,7-dihydro-11H-dipyrido[1,2-d:2′,3′-f][1,4]oxazepine-10-carboxylic acid] | 0.26 µM
COCCCOc1cc2c(nc1C1CC1)-c1cc(=O)c(C(=O)O)cn1[C@H](C(C)(C)C)CO2 [Example 67, (R)-7-(Tert-butyl)-2-cyclopropyl-3-(3-methoxypropoxy)-11-oxo-6,7-dihydro-11H-dipyrido[1,2-d:2′,3′-f][1,4]oxazepine-10-carboxylic acid] | 0.0009 µM
Cc1cc2c(cc1OCC1CC1)OC[C@@H](C(C)C)n1cc(C(=O)O)c(=O)cc1-2 [Example 49, (R)-3-(Cyclopropylmethoxy)-7-isopropyl-2-methyl-11-oxo-6,7-dihydro-11H-benzo[f]pyrido[1,2-d][1,4]oxazepine-10-carboxylic acid] | 0.049 µM
COCCCOc1cc2c(nc1Cl)-c1cc(=O)c(C(=O)O)cn1C1(CO2)CC(C)(C)C1 [Example 72, 2′-Chloro-3′-(3-methoxypropoxy)-3,3-dimethyl-11′-oxo-6′H,11′H-spiro[cyclobutane-1,7′-dipyrido[1,2-d:2′,3′-f][1,4]oxazepine]-10′-carboxylic acid] | 0.18 µM
COc1cc2c(cc1Cl)-c1cc(=O)c(C(=O)O)cn1[C@H](CC(C)C)CO2 (single isomer, unassigned) [Example 7] | 0.61 µM
COCCOc1cc2c(cc1Cl)-c1cc(=O)c(C(=O)O)cn1C(C(C)C)CO2 (stereo not shown) [Example 29, 2-Chloro-7-isopropyl-3-(2-methoxyethoxy)-11-oxo-6,7-dihydro-11H-benzo[f]pyrido[1,2-d][1,4]oxazepine-10-carboxylic acid] | 0.065 µM
COCCCOc1cc2c(nc1OC)-c1cc(=O)c(C#N)cn1[C@H](C(C)C)C2 [Example 113, (S)-6-Isopropyl-2-methoxy-3-(3-methoxypropoxy)-10-oxo-5,10-dihydro-6H-pyrido[1,2-h][1,7]naphthyridine-9-carbonitrile] | 1 µM
COCCCOc1cc2c(cc1Cl)-c1cc(=NO)c(C(=O)O)cn1C(C(C)(C)C)C2 (stereo not shown) [Example 145, 6-Tert-butyl-10-chloro-2-(hydroxyimino)-9-(3-methoxypropoxy)-6H,7H-pyrido[2,1-a]isoquinoline-3-carboxylic acid] | 0.15 µM
COCCCOc1cc2c(nc1Cl)-c1cc(=O)c(C(=O)O)cn1C1(CCCCC1)CO2 [Example 69, 2′-Chloro-3′-(3-methoxypropoxy)-1′-oxo-6′H,11′H-spiro[cyclohexane-1,7′-dipyrido[1,2-d:2′,3′-f][1,4]oxazepine]-10′-carboxylic acid] | 0.021 µM
COCCCOc1cc2c(cc1Cl)-c1cc(=O)c(N3C(=O)CCC3=O)cn1C(C(C)(C)C)C2 (stereo not shown) [Example 125, 1-[6-Tert-butyl-10-chloro-9-(3-methoxypropoxy)-2-oxo-6H,7H-pyrido[2,1-a]isoquinolin-3-yl]pyrrolidine-2,5-dione] | 12 µM
CC(C)COc1cc2c(nc1Cl)-c1cc(=O)c(C(=O)O)cn1[C@H](C(C)C)CO2 [Example 79, (R)-2-Chloro-3-isobutoxy-7-isopropyl-11-oxo-6,7-dihydro-11H-dipyrido[1,2-d:2′,3′-f][1,4]oxazepine-10-carboxylic acid] | 0.79 µM
COCCCOc1cc2c(nc1OC)-c1c(F)c(=O)c(C(=O)O)cn1[C@H](C(C)C)C2 [Example 26, (S)-11-Fluoro-6-isopropyl-2-methoxy-3-(3-methoxypropoxy)-10-oxo-5,10-dihydro-6H-pyrido[1,2-h][1,7]naphthyridine-9-carboxylic acid] | 0.002 µM
COCCCOc1cc2c(cc1Cl)-c1cc(=O)c(-c3ncccc3C)cn1[C@H](C(C)C)CO2 [Example 137, (R)-2-Chloro-7-isopropyl-3-(3-methoxypropoxy)-10-(3-methylpyridin-2-yl)-6,7-dihydro-11H-benzo[f]pyrido[1,2-d][1,4]oxazepin-11-one] | 10 µM
COCCCOc1cc2c(cc1Cl)-c1cc(=O)c(B(O)O)cn1[C@H](C(C)C)CO2 [Example 140, (R)-(2-Chloro-7-isopropyl-3-(3-methoxypropoxy)-11-oxo-6,7-dihydro-11H-benzo[f]pyrido[1,2-d][1,4]oxazepin-10-yl)boronic acid] | 2.1 µM
COCC1(COC)COc2cc3c(cc2OC1)-c1cc(=O)c(C(=O)O)cn1C(C(C)(C)C)C3 (stereo not shown) [Example 99, 6-(Tert-butyl)-11,11-bis(methoxymethyl)-2-oxo-6,7,11,12-tetrahydro-2H,10H-[1,4]dioxepino[2,3-g]pyrido[2,1-a]isoquinoline-3-carboxylic] | 0.49 µM
COc1cc2c(cc1Cl)-c1cc(=O)c(C(=O)O)cn1C1CCC1O2 (stereo not shown) [Example 13, 11-Chloro-10-methoxy-2-oxo-5a,6,7,7a-tetrahydro-2H-benzo[f]cyclobuta[b]pyrido[1,2-d][1,4]oxazepine-3-carboxylic acid] | 1.8 µM
COCCCOc1cc2c(nc1OC)-c1cc(=O)c(C(C)(C)O)cn1C(C(C)C)C2 (stereo not shown) [Example 143, 9-(2-Hydroxypropan-2-yl)-6-isopropyl-2-methoxy-3-(3-methoxypropoxy)-5,6-dihydro-10H-pyrido[1,2-h][1,7]naphthyridin-10-one] | 0.91 µM

Same assay, conditions: read-out: sAg EC50; HepG2.2.15 cells, day 6

SMILES | EC50
COCCCOc1cc2c([nH]c1=O)-c1cc(=O)c(C(=O)O)cn1C(C(C)C)C2 (single isomer, unassigned) [Example 166, 6-Isopropyl-3-(3-methoxypropoxy)-2,10-dioxo-2,5,6,10-tetrahydro-1H-pyrido[1,2-h][1,7]naphthyridine-9-carboxylic acid] | 0.45 µM
CC(C)(C)C1Cc2cc3c(cc2-c2cc(=O)c(C(=O)O)cn21)OCC1(COC1)CO3 (single isomer, unassigned) [Example 94, 6′-(Tert-butyl)-2′-oxo-6′,7′-dihydro-2′H,10′H,12′H-spiro[oxetane-3,11′-[1,4]dioxepino[2,3-g]pyrido[2,1-a]isoquinoline]-3′-carboxylic acid] | 2.2 µM
CC(C)(C)C1Cc2cc3c(cc2-c2cc(=O)c(C(=O)O)cn21)OCCCO3 (single isomer, unassigned) [Example 91, 6-(Tert-butyl)-2-oxo-6,7,11,12-tetrahydro-2H,10H-[1,4]dioxepino[2,3-g]pyrido[2,1-a]isoquinoline-3-carboxylic acid] | 0.94 µM
COCCCOc1cc2c(nc1OC)-c1cc(=O)c(C(=O)O)cn1C(C)(C(C)C)C2 (single isomer, unassigned) [Example 157, 6-Isopropyl-2-methoxy-3-(3-methoxypropoxy)-6-methyl-10-oxo-5,10-dihydro-6H-pyrido[1,2-h][1,7]naphthyridine-9-carboxylic acid] | 0.11 µM
COCCCOc1cc2c(nc1OC)-c1cc(=O)c(C(=O)O)cn1C(C)(C(C)C)C2 (single isomer, unassigned) [Example 156, 6-Isopropyl-2-methoxy-3-(3-methoxypropoxy)-6-methyl-10-oxo-5,10-dihydro-6H-pyrido[1,2-h][1,7]naphthyridine-9-carboxylic acid] | 0.001 µM
COCCCOc1cc2c(nc1Cl)-c1cc(=O)c(C(=O)O)cn1C1C(CCC1(C)C)O2 (single isomer, unassigned) [Example 82, 6-Chloro-7-(3-methoxypropoxy)-12,12-dimethyl-3-oxo-9a,11,12,12a-tetrahydro-3H,10H-cyclopenta[b]dipyrido[1,2-d:2′,3′-f][1,4]oxazepine-2-carboxylic acid] | 0.008 µM
